From patent US20240050429A1, “PAZOPANIB PHARMACEUTICAL COMPOSITION, INJECTION AND PREPARATION METHOD AND USE THEREOF” (Qx Therapeutics, Inc., priority 2022, published 2024)
Structures can show the parent of a compound that is named as a salt.

Tested on: hydrochloric acid-induced acute lung injury in mice
Test: Hydrochloric acid-induced acute lung injury, lung permeability, tail intravenous injection of Example 2
Format: in vivo
Design: dose or concentration left out as unconfirmed
Description: 1. In this example, […], respectively, which corresponded to the freshly prepared pharmaceutical compositions in Example 2 (being freshly formulated referred to within 1 day after the formulation was completed), and the therapeutic effect of these doses on hydrochloric acid-induced acute lung injury in mice were determined, wherein the body weight of each mouse was 20 g.
8 to 10 weeks old C57/BL male and female mice were infused with 0.05 M HCl at 2.5 μl/bwg through the trachea. 4 hours later, 100 μl of FITC-labeled albumin (10 mg/ml) was injected through the posterior segment of eyeball. Finally, the mice were euthanized and lung tissue samples were collected 6 hours after the induction of injury to measure changes in pulmonary permeability and lung histopathology. […] Meanwhile, plasma was collected and bronchoalveolar lavage was performed after mice were euthanized.

In the case of `Cc1ccc(Nc2nccc(N(C)c3ccc4c(C)n(C)nc4c3)n2)cc1S(N)(=O)=O` [Comparative Example 1, pazopanib hydrochloride], the “Percentage (%) of reduced lung permeability” value is reported as 45 to 70%.
